According to ChEMBL document CHEMBL3112445, “Design and synthesis of prostate cancer antigen-1 (PCA-1/ALKBH3) inhibitors as anti-prostate cancer drugs” (Bioorg Med Chem Lett, 2014):
Active and inactive are the calls of the source. No cut-off for these calls is given here.

How the values were obtained:
[1] = target: T1, Alpha-ketoglutarate-dependent dioxygenase alkB homolog 3 (Homo sapiens) (UniProt Q96Q83); assay: Inhibition of demethylase activity of PCA-1 (unknown origin) using 3-methyl cytosine oligo DNA as […] after 1 hr by RT-PCR analysis
T1 sequence (whole entry): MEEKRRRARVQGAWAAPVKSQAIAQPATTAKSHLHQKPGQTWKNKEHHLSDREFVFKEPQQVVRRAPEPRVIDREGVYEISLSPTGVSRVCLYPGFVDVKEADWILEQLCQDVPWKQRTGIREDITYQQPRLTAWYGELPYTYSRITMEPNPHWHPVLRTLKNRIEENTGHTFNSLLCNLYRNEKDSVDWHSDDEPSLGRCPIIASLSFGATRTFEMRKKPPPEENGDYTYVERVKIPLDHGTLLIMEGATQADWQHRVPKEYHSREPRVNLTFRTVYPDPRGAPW

[2] = target: T2, Alpha-ketoglutarate-dependent dioxygenase alkB homolog 3 (Homo sapiens, UniProt Q96Q83); assay: Inhibition of demethylase activity of PCA-1 (unknown origin) using 3-methyl cytosine oligo DNA as substrate after 1 hr by RT-PCR analysis
T2 sequence (Q96Q83 whole entry): T1 sequence (whole entry)

DU-145 [3] = assay: Antiproliferative activity against human DU145 cells at 10 uM after 48 hrs by 2-D dish-based WST-assay; assay type: functional; settings: DU-145, 48 h
DU-145 [4] = assay: Antiproliferative activity against human DU145 cells at 10 uM after 7 days by 3-D agar-based WST-assay; assay type: functional; settings: DU-145, 168 h
DU-145 [5] = assay: Antiproliferative activity against human DU145 cells at 1 uM after 7 days by 3-D agar-based WST-assay; assay type: functional; settings: DU-145, 168 h
DU-145 [6] = assay: Antiproliferative activity against human DU145 cells at 1 uM after 48 hrs by 2-D dish-based WST-assay; assay type: functional; settings: DU-145, 48 h
DU-145 [7] = assay: Anticancer activity against human DU145 cells xenografted in mouse assessed as tumor growth inhibition at 32 mg/kg, sc administered daily for 6 days; assay type: functional, organism-based; set-up: dose 32 mg/kg
[8] = Drug level in Sprague-Dawley rat serum at 32 mg/kg, po after 1 hr; assay type: ADME, organism-based; set-up: dose 32 mg/kg, route oral
[9] = target: T1, Alpha-ketoglutarate-dependent dioxygenase alkB homolog 3 (Homo sapiens); settings: 10 uM
Description: Inhibition of PCA-1 (unknown origin) at 10 uM

[10] = AUC (0 to 24 hrs) in Sprague-Dawley rat serum at 0.5 mg/kg, iv; assay type: ADME, organism-based; set-up: time < 24 hr, dose 0.5 mg/kg, route intravenous
[11] = AUC (0 to 24 hrs) in Sprague-Dawley rat serum at 32 mg/kg, po; assay type: ADME, organism-based; set-up: time < 24 hr, dose 32 mg/kg, route oral
[12] = Initial plasma concentration in Sprague-Dawley rat serum at 0.5 mg/kg, iv; assay type: ADME, organism-based; set-up: dose 0.5 mg/kg, route intravenous
[13] = Cmax in Sprague-Dawley rat serum at 32 mg/kg, po; assay type: ADME, organism-based; set-up: dose 32 mg/kg, route oral
[14] = Oral bioavailability in Sprague-Dawley rat at 32 mg/kg; assay type: ADME, organism-based; settings: in vivo
Mus musculus [15] = assay: Toxicity in human DU145 cells xenografted mouse model assessed as body weight at 32 mg/kg, sc administered daily for 6 days; assay type: organism-based, DU-145; set-up: dose 32 mg/kg, route subcutaneous; settings: in vivo, 144 h
Mus musculus [16] = assay: Toxicity in human DU145 cells xenografted mouse model assessed as abnormal behavior at 32 mg/kg, sc administered daily for 6 days; assay type: organism-based, DU-145; set-up: dose 32 mg/kg, route subcutaneous; settings: in vivo, 144 h
Mus musculus [17] = assay: Toxicity in human DU145 cells xenografted mouse model assessed as abnormality in organs at 32 mg/kg, sc administered daily for 6 days; assay type: organism-based, DU-145; set-up: dose 32 mg/kg, route subcutaneous; settings: in vivo, 144 h

IC50 [2] | Compound | other results
> 10000 nM | Cc1[nH]n(-c2ccccc2)c(=O)c1C | inhibition [1]: 20%
640 nM | Cc1[nH]n(-c2nc3ccc(C(C)(C)C)cc3[nH]2)c(=O)c1Cc1ccccc1 | –
> 10000 nM | Cc1[nH]n(-c2nc3ccccc3[nH]2)c(=O)c1Cc1ccccc1Cl | –
4100 nM | Cc1[nH]n(-c2nc3ccccc3[nH]2)c(=O)c1Cc1ccc(C(C)(C)C)cc1 | –
910 nM | Cc1ccc2[nH]c(-n3[nH]c(C)c(Cc4ccccc4Cl)c3=O)nc2c1 | –
> 10000 nM | Cc1[nH]n(-c2nc3ccccc3s2)c(=O)c1C | inhibition [1]: -3%
1700 nM | Cc1[nH]n(-c2ccccn2)c(=O)c1C(=O)Nc1ccccc1 | inhibition at 10 µM (DU-145 [3]): 25%
1500 nM | Cc1[nH]n(-c2nc3cc(-c4ccc(Cl)cc4)ccc3[nH]2)c(=O)c1Cc1ccccc1 | inhibition at 10 µM (DU-145 [3]): 63%; inhibition at 10 µM (DU-145 [4]): 100%; inhibition at 1 µM (DU-145 [5]): 91%; inhibition at 1 µM (DU-145 [6]): 70%
5300 nM | Cc1ccc2nc(-n3[nH]c(C)c(Cc4ccc(-c5ccccc5)cc4)c3=O)[nH]c2c1 | –
4300 nM | COC(=O)Cc1c(C)[nH]n(-c2nc3ccccc3[nH]2)c1=O | –
15000 nM | Cc1[nH]n(-c2nc3ccccc3[nH]2)c(=O)c1CC(=O)O | –
610 nM | Cc1[nH]n(-c2nc3cc(C(F)(F)F)ccc3[nH]2)c(=O)c1Cc1ccccc1 | inhibition at 10 µM (DU-145 [3]): 84%; inhibition at 10 µM (DU-145 [4]): 92%; inhibition at 1 µM (DU-145 [5]): 90%; inhibition at 1 µM (DU-145 [6]): 78%
600 nM | Cc1[nH]n(-c2nc3ccccc3[nH]2)c(=O)c1Cc1ccc(F)cc1 | –
5800 nM | Cc1ccc2[nH]c(-n3nc(-c4ccccc4)c(-c4ccccc4)c3O)nc2c1 | –
750 nM | Cc1[nH]n(-c2nc3ccccc3[nH]2)c(=O)c1Cc1ccc2ccccc2c1 | –
> 10000 nM | Cc1[nH]n(-c2ncccn2)c(=O)c1C | inhibition [1]: -4%
> 10000 nM | Cc1c(-c2ccccc2)[nH]n(-c2nc3ccccc3[nH]2)c1=O | –
3300 nM | Cc1ccc2[nH]c(-n3[nH]c(-c4ccccc4)c(C)c3=O)nc2c1 | –
– | Cc1ccc2[nH]c(-n3[nH]c(C)c(Cc4ccccc4)c3=O)nc2c1 | inhibition at 10 µM (DU-145 [3]): 54%; inhibition at 10 µM (DU-145 [4]): 81%; inhibition at 1 µM (DU-145 [5]): 34%; TGI (DU-145 [7]): Active; inhibition at 1 µM (DU-145 [6]): 35%
> 10000 nM | Cc1ccc2nc(-n3[nH]c(C)c(Cc4ccccc4)c3=O)[nH]c2c1C | –
810 nM | Cc1[nH]n(-c2nc3cc(-c4ccccc4)ccc3[nH]2)c(=O)c1Cc1ccccc1 | –
3100 nM | Cc1[nH]n(-c2nc3ccccc3[nH]2)c(=O)c1Cc1ccc(Cl)c(Cl)c1 | –
750 nM | Cc1ccc2[nH]c(-n3[nH]c(C)c(Cc4ccc(Cl)cc4)c3=O)nc2c1 | inhibition at 10 µM (DU-145 [3]): 46%; inhibition at 10 µM (DU-145 [4]): 90%; inhibition at 1 µM (DU-145 [5]): 2.8%; inhibition at 1 µM (DU-145 [6]): -1%
720 nM | Cc1[nH]n(-c2nc3ccccc3[nH]2)c(=O)c1Cc1ccc(-c2ccccc2)cc1 | –
> 10000 nM | Cc1[nH]n(-c2nc3ccccc3n2C)c(=O)c1C | inhibition [1]: 21%

IC50 [2] | Compound | other results
2000 nM | Oc1c(-c2ccccc2)c(-c2ccccc2)nn1-c1nc2cc(Cl)ccc2[nH]1 | –
> 10000 nM | Cc1[nH]n(-c2nc3ccccc3[nH]2)c(=O)c1Cc1ccc(Cl)cc1Cl | inhibition [1]: 11%
2600 nM | Cc1ccc2[nH]c(-n3[nH]c(C)c(C)c3=O)nc2c1 | inhibition at 10 µM (DU-145 [3]): 19%; inhibition at 10 µM (DU-145 [4]): 69%; inhibition at 1 µM (DU-145 [5]): 3.8%; concentration at 1 h [8]: 1080 ng/mL; inhibition at 1 µM (DU-145 [6]): -11%
490 nM | Cc1[nH]n(-c2nc3cc(Br)ccc3[nH]2)c(=O)c1Cc1ccccc1 | –
780 nM | Cc1ccc2[nH]c(-n3[nH]c(C)c(Cc4ccc(F)cc4)c3=O)nc2c1 | –
550 nM | Cc1[nH]n(-c2nc3ccccc3[nH]2)c(=O)c1Cc1ccc(C(F)(F)F)cc1 | –
3600 nM | Cc1cc(O)n(-c2nc3ccccc3[nH]2)n1 | –
> 10000 nM | O=c1c(Cc2ccccc2)c(-c2ccccc2)[nH]n1-c1nc2ccccc2[nH]1 | inhibition [1]: 2%
> 10000 nM | Cc1[nH]n(-c2nc3ccccc3o2)c(=O)c1C | inhibition [1]: 0%
480 nM | Cc1nn(-c2nc3ccccc3[nH]2)c(O)c1Cc1ccccc1 | inhibition at 10 µM (DU-145 [3]): 47%; inhibition at 10 µM (DU-145 [4]): 90%; inhibition at 1 µM (DU-145 [5]): 42%; inhibition at 1 µM (DU-145 [6]): 42%
4000 nM | Cc1[nH]n(-c2nc3ccccc3[nH]2)c(=O)c1C | inhibition at 10 µM (DU-145 [3]): 0.8%; inhibition [9]: 76%
2100 nM | Cc1ccc(-c2ccc3[nH]c(-n4[nH]c(C)c(Cc5ccccc5)c4=O)nc3c2)cc1 | –
670 nM | Cc1ccc2nc(-n3[nH]c(C)c(Cc4ccccc4)c3=O)[nH]c2c1 | AUC(0-t) at 24 h [10]: 150 ng·h/mL; AUC(0-t) at 24 h [11]: 690 ng·h/mL; C0 [12]: 430 ng/mL; Cmax [13]: 350 ng/mL; bioavailability [14]: 7.2%; Activity (Mus musculus [15]): Non-toxic
540 nM | Cc1[nH]n(-c2nc3ccccc3[nH]2)c(=O)c1Cc1cccc(Cl)c1 | –
680 nM | COc1ccc(Cc2c(C)[nH]n(-c3nc4ccc(C)cc4[nH]3)c2=O)cc1 | –
> 10000 nM | Cc1[nH]n(-c2ccccn2)c(=O)c1C | inhibition [1]: -4%
> 10000 nM | Cc1[nH]n(-c2nc3c(C)cccc3[nH]2)c(=O)c1C | –
720 nM | Cc1ccc2[nH]c(-n3[nH]c(C)c(Cc4ccc(Cl)c(Cl)c4)c3=O)nc2c1 | –
5900 nM | Cc1[nH]n(-c2nc3c(C)cccc3[nH]2)c(=O)c1Cc1ccccc1 | –
4500 nM | Cc1[nH]n(-c2nc3cc(Cl)ccc3[nH]2)c(=O)c1Cc1ccccc1 | inhibition at 10 µM (DU-145 [4]): 87%; inhibition at 1 µM (DU-145 [5]): 84%; inhibition at 1 µM (DU-145 [6]): 86%
> 10000 nM | Cc1[nH]n(-c2nc3ccccc3[nH]2)c(=O)c1Cc1ccc(Cl)cc1 | inhibition [1]: 46%
7200 nM | O=c1cc(-c2ccccc2)[nH]n1-c1nc2ccccc2[nH]1 | –
570 nM | Cc1ccc2nc(-n3[nH]c(C)c(Cc4ccc(C(F)(F)F)cc4)c3=O)[nH]c2c1 | –
3700 nM | Cc1ccc2[nH]c(-n3[nH]c(C)c(Cc4ccc(C(C)(C)C)cc4)c3=O)nc2c1 | –
630 nM | COc1ccc(Cc2c(C)[nH]n(-c3nc4ccccc4[nH]3)c2=O)cc1 | Activity (Mus musculus [16]): Non-toxic; Activity (Mus musculus [17]): Non-toxic
